# Assay results as given in PMC12610503, “The Molecular Mechanism of PDE1 Regulation” (Cells, 2025).
# Entries after “also recorded” stand apart in the source; their conditions may differ. Ends that are not written are not given here.
# Experiments:
# [1] = system: PDE1/4 chimera (PDE1B regulatory domain fused to the PDE4D catalytic domain); assay: PDE4 inhibitor inhibition of the PDE1/4 chimera (SPA); type: biochemical, human; conditions: [3H]-cAMP; for Inhibition of PDE1/4 chimera activity (in words) / Rolipram potency on PDE1/4 chimera relative to PDE4D catalytic domain (in words) / Rolipram affinity/potency boost on calcium/calmodulin-activated PDE1/4 chimera (in words): pH 7.2, 1 h, room temperature; for Rolipram potency on PDE1/4 chimera relative to PDE4D catalytic domain (in words): IC50, 3–5 independent experiments, without calcium/calmodulin activation; for Rolipram affinity/potency boost on calcium/calmodulin-activated PDE1/4 chimera (in words): chimera activated by calcium/calmodulin
# From the text: (§1) Human PDE1B1 (Refseq: NM_000924.4) and its N-terminal deletion constructs were cloned into BamH1 and Xho1 sites of pcDNA3.1(+) using PCR. The stated boundary and amino acid positions for mutants and deletion constructs are based on the PDE1B1 isoform (Refseq: NP_000915). For all N-terminal constructs, a start codon was introduced upstream of the indicated boundary, resulting in a methionine preceding the amino acid specified by the N-terminal boundaries. Point mutations and internal deletions were generated using the QuickChange^TM site-directed mutagenesis method, as previously described. The PDE1B-PDE4D chimera was generated by inserting the human PDE4D catalytic domain with a PCR-introduced N-terminal BspE1 site into a pcDNA3.1-PDE1B (82-end) construct using an internal BspE1 site at the junction of the regulatory and catalytic domain and an Xho1 site downstream of the stop codon. All constructs were validated through sequencing. Maps and sequences are available upon request. Alignments were generated using Geneious Prime (v 2024.0.7). Amino acids are colored according to the RasMol color scheme, and similarities are indicated according to the BLOSUM substitution matrix.
# Plasmids were transiently transfected into HEK293 cells using Lipofectamine 2000 (Thermo Fisher, Waltham, MA, USA) according to the manufacturer’s instructions. For each well of a 6-well plate, 5 µg plasmid and 10 µL Lipofectamine 2000 were used.
# Next, 48 h after transfection, cells were washed once with ice-cold PBS, scraped off into 2 mL PBS, and pelleted via centrifugation at 700× g for 5 min at 4 °C. The resulting cell pellet was frozen. Later, the pellet was thawed and resuspended in 0.5 mL of lysis buffer 50 mM Tris-HCL (pH 8.0) (Sigma-Aldrich, T3253, St. Louis, MO, USA), 1 mM MgCl2, and Complete ULTRA protease inhibitor cocktail (Roche, 05892970001, Basel, Switzerland). The lysate was then centrifuged at 20.000× g for 10 min at 4 °C to remove nuclei and membranes. Then, 0.05% Tween20 (Sigma-Aldrich, P2287) (final concentration) was added to the supernatant containing the cytosolic PDE1 before it was aliquoted and snap frozen.
# PDE activity was measured using a scintillation proximity assay (SPA)-based method, similar to that previously described. Briefly, assays were conducted in 96-well plates using a buffer containing 40 mM Hepes (pH 7.2), 140 mM KCl, and 1.5 mM MgCl2. In each well, 0.005–0.05 µL PDE lysate was mixed with or without final concentrations of 50 µM CaCl2 and 50 nM calmodulin (Sigma-Aldrich, P1431) in a volume of 55 µL, and allowed to stand for 5 min at room temperature. Lysate amounts were adjusted to ensure that less than 30% of the tritiated substrate was hydrolyzed. Next, 10 µL tritiated cyclic nucleotide substrate ([3H]-cGMP for PDE1 and [3H]-cAMP for PDE4 and the PDE1/4 chimera) was added, and the reaction was allowed to proceed for 1 h at room temperature before 15 µL of 8 mg/mL phosphodiesterase SPA beads (Perkin Elmer, RPNQ0150, Shelton, CT, USA) was added. After another hour at room temperature to allow binding of the reaction products to the beads, the plates were counted for 2 min using a liquid scintillation counter (Wallac Trilux, Turku, Finland). […] To avoid overestimating inhibition, PEP1-sol was also tested by adding it after reaction termination (i.e., after SPA bead addition) in concentration–response experiments, and pre-addition inhibition minus post-addition (apparent) inhibition at each concentration was used for IC50 calculations.
# To test whether the regulatory domains are functionally transferable, we generated and expressed a PDE1/4 chimera with the regulatory domain from PDE1B fused to the catalytic domain from PDE4D (Figure S1).
# [2] = system: PDE4 UCR2-containing isoforms; conditions: cited from earlier work
# From the text: For PDE4, the longer isoforms that contain the N-terminal upstream conserved regions (UCR1 and UCR2) are activated by phosphorylation via the cAMP-activated protein kinase A (PKA), providing feedback regulation. […] To test whether the regulatory domains are functionally transferable, we generated and expressed a PDE1/4 chimera with the regulatory domain from PDE1B fused to the catalytic domain from PDE4D (Figure S1). […] Rolipram is a selective PDE4 inhibitor with higher potency towards PD ...
# [3] = target: T1, PDE1B catalytic domain (PDE1B-cata) (Homo sapiens, UniProt Q01064); assay: Inhibition of PDE1B-cata enzyme activity by inhibitory domain peptides added in trans (SPA); type: biochemical; conditions: [3H]-cGMP, pH 7.2, 1 h, room temperature, post-addition (apparent) inhibition subtracted, average ± SEM from 3 independent experiments
# T1 construct: compared to the PDE1B catalytic domain (PDE1B-cata; 146–536); added initiator methionine (single Met before residue 146); made in house; host or cells: HEK293 cells, transiently transfected with pcDNA3.1(+) construct; cleared cytosolic lysate used, not purified
# T1 sequence (Q01064 146-536): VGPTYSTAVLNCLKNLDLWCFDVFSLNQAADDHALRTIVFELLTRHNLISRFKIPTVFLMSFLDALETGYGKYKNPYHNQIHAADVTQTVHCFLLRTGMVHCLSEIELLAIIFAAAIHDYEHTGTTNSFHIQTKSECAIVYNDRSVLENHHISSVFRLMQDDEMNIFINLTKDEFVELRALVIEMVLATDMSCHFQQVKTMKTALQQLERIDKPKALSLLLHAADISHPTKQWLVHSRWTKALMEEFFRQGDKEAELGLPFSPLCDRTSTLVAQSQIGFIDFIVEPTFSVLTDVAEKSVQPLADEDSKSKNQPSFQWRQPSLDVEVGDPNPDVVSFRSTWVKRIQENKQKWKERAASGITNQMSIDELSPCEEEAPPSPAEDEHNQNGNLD
# From the text: as §1, with “Alignments were generated using Geneious Prime (v 2024.0.7). Amino acids are colored according to the RasMol color scheme, and similarities are indicated according to the BLOSUM substitution matrix.” left out
# (§2) PDE activity was measured using a scintillation proximity assay (SPA)-based method, similar to that previously described. […] After another hour at room temperature to allow binding of the reaction products to the beads, the plates were counted for 2 min using a liquid scintillation counter (Wallac Trilux, Turku, Finland). […] Since absorbance was low, this had only a minor impact on IC50 estimates. […]
# [4] = Solubility of inhibitory domain peptides; type: physicochemical
# [5] = system: PDE1B_82–501; assay: Calcium/calmodulin activation of PDE1B_82–501 (SPA); type: biochemical, human; conditions: 50 nM calmodulin and 50 µM CaCl2; deletion of 35 amino acids from C-terminal
# From the text: as §1, with “Alignments were generated using Geneious Prime (v 2024.0.7). Amino acids are colored according to the RasMol color scheme, and similarities are indicated according to the BLOSUM substitution matrix.” left out
# as §2
compound,measurement,setting,value
COc1ccc(C2CNC(=O)C2)cc1OC1CCCC1 (stereo not shown) [rolipram],Inhibition of PDE1/4 chimera activity (in words),[1],could be inhibited
same,Rolipram potency on PDE1/4 chimera relative to PDE4D catalytic domain (in words),[1],inhibited the PDE1/4 chimera more potently than the PDE4D catalytic domain
same,Rolipram potency on PDE1/4 chimera relative to PDE4D catalytic domain (in words),[1]; listed as Rolipram,inhibits the PDE1/4 chimera more potently than the PDE4D catalytic domain alone
same,Rolipram affinity/potency boost on calcium/calmodulin-activated PDE1/4 chimera (in words),[1],affinity boost was lost when the chimera was activated by calcium/calmodulin
same,Rolipram affinity/potency boost on calcium/calmodulin-activated PDE1/4 chimera (in words),[1]; listed as Rolipram,increased potency is lost upon activation of the chimera by calcium/calmodulin
same,Rolipram affinity for UCR2-containing isoforms compared to the catalytic domain alone (in words),[2]; compared to the catalytic domain alone,higher affinity
same,Rolipram potency towards PDE4 isoforms containing regulatory domains (in words),[2]; selective PDE4 inhibitor,higher potency towards PDE4 isoforms containing regulatory domains
SDEVPSEVRDWLASTFTRQ [PEP1-sol],IC50,[3],17.9 ± 2.1 µM
same,Solubility (in words),[4],more soluble variant
O=C(Nc1c(Cl)cncc1Cl)c1ccc(OC(F)F)c(OCC2CC2)c1 [roflumilast],Effect of calcium/calmodulin activation on roflumilast IC50 towards chimera (in words),[1]; 3-4 independent experiments,unaffected by
same,Roflumilast IC50 towards chimera compared with PDE4Dcata (in words),"[1]; 3-4 independent experiments, one-way ANOVA with Sidak's",not significantly different from PDE4D catalytic domain
same,Inhibition of PDE1/4 chimera activity (in words),[1],could be inhibited; also recorded: inhibits the PDE1/4 chimera
calmodulin,Calmodulin regulation of PDE1B_82–501 (in words),[5],no impact on calmodulin regulation of activity
